Assays:
[1] = system: tumor vasculature of 786-O xenografts; assay: IHC of tumor vasculature in 786-O xenografts; assay type: in vivo, mouse
Description: (§1) Formalin-fixed paraffin-embedded samples were sectioned at 5 μm thickness and mounted on Superfrost Plus microscope slides (Fisher Scientific). All immunohistochemical (IHC) staining was performed on Bond Rx auto-stainer (Leica Biosystems) using the conventional TSA-amplified detection system. Primary antibodies used were as follows: α-CD31 (Abcam #ab182981), α-smooth muscle actin (SMA; Abcam #ab124964), α-Meca32 (Novus Biologicals #NB100-77668). TSA-conjugated Alexa488 and Alexa647 fluorophores from Invitrogen (#B40953 and #B40958) were used at 1:500 dilution. Slides were counterstained with DAPI and cover slipped using Mowiol antifade mounting media (Sigma #D2522).
(§2) Slides were imaged with Aperio Versa 200 (Leica Biosystems) whole-slide scanner using 10×/0.32NA objective, and the data were analyzed using custom-written macros in ImageJ/FIJI (NIH). Briefly, 150 μm of outer edges of the tumor sections were eliminated from the analysis. Gaussian-blurred DAPI channel was used to measure the area of the tissue. Scans of […] were processed with median filter to remove noise, then positive areas were measured with appropriate threshold levels. % positive area for each marker was calculated. CD31-SMA double positive areas were measured via image calculation of the binary images. One-way ANOVA and pair-wise comparisons were performed on the data using Prism GraphPad.
PERK is an adaptive stress response that links hypoxia and nutrient deprivation with proangiogenic signaling. The effect of HC-5404 on tumor vasculature when administered in combination with antiangiogenic VEGFR-TKIs was investigated.
As immature blood vessels mature, they develop a mural layer of cells that express smooth muscle actin (SMA), which encircles and stabilizes the maturing vessel. Co-staining for both CD31 and SMA was conducted to determine whether treatments were affecting mature or immature tumor blood vessels.
This example investigated the inhibition the effect of cabozantinib on the formation of new tumor vasculature and on pericytes following procedures analogous to those described above.

[2] = system: RCC patient-derived xenografts (PDXs); assay: single-animal study in RCC PDX models; assay type: in vivo, mouse
Excerpt: For patient derived xenograft model generation, small pieces of neuroendocrine pancreatic cancers were implanted into female NSG mice (6-8 weeks of age), fragments of Huprime gastric cancers were implanted into female Balb/c nude mice and for a single animal trial in RCC PDX models, tumor fragments from selected RCC PDX models were implanted into mice unilaterally.
(§3) Once tumor tumors reached volume of typically 150-250 mm^3, animals were randomized by tumor volume into the treatment groups of 8 or 10 animals per group. In the single animal trial with RCC PDX models, only one animal per group was enrolled.
(§4) Body weight and tumor volume were measured twice weekly. Tumor volume was calculated using the formula [tumor volume (mm^3)=π/6×length×width^2] and plotted as means+SEM. The percentage of tumor growth inhibition was calculated at the end of the study using the formula: 100−[1−(ΔT/ΔC)], if ΔT>0, ΔT, mean tumor volume of the drug-treated group on the observation day of the study—mean tumor volume of the drug-treated group on initial day of dosing; ΔC, mean tumor volume of the control group on the observation day of the study—mean tumor volume of the control group on initial day of dosing. Regression was calculated using the formula=100×ΔT/Tinitial, if ΔT<0. Animals with >50% regressions were partial responders. […]

[3] = system: tumor vasculature and pericyte cells of 786-O xenografts progressed on axitinib; assay: IHC of tumor vasculature and pericytes in 786-O xenografts that progressed on axitinib; assay type: in vivo, mouse
Description: as §1, §2
After 14 days of treatments, 77 mice bearing the largest tumors were rerandomized into four PD arms (n=8), four efficacy arms (n=10), and 5 tumors sampled on day of rerandomization as a baseline. The remaining animals were removed from study.

786-O RCC xenograft = 786-O RCC xenograft tumor growth; assay type: in vivo, mouse; settings: for effect on tumor volume: single agent, efficacy arms (FIG. 28)
Description: (§5) Xenograft RCC models were generated as follows: Female NOD.SCID mice (6-8 weeks of age) were injected with A498 RCC cells (5×10^6 cells/mouse), female Balb/c Nude mice (6-8 weeks old) were implanted with 786-O RCC cells (5×10^6 cells/mouse) or Caki-1 RCC cells (6×10^6 cells/mouse), female Athymic Nude-Foxn1nu mice (7-8 weeks of age) were implanted with MFE280 endometrial cells (10×10^6 cells/mouse). Cells were implanted into the flank of animals.
as §3
(§6) Body weight and tumor volume were measured twice weekly. Tumor volume was calculated using the formula [tumor volume (mm^3)=π/6×length×width^2] and plotted as means+SEM. The percentage of tumor growth inhibition was calculated at the end of the study using the formula: […], if ΔT>0, ΔT, mean tumor volume of the drug-treated group on the observation day of the study—mean tumor volume of the drug-treated group on initial day of dosing; ΔC, mean tumor volume of the control group on the observation day of the study—mean tumor volume of the control group on initial day of dosing. Regression was calculated using the formula=100×ΔT/Tinitial, if ΔT<0. Animals with >50% regressions were partial responders. Animals with tumor volume of 0 (no measurable tumor) were considered as complete responders, and animals with <50% tumor regression and 30% growth over the baseline were considered as stable disease. Animals with tumors>30% increase over the baseline were considered progressive disease. The % change in body weight was calculated by the formula (body weight on observation day−body weight on initial day)/body weight on initial day×100%.

[4] = mouse body weight / tolerability; assay type: in vivo; settings: for body weight loss: 786-O xenografts, single agent PO, 21 days (FIG. 26)
Description: as §6

pPERK in 786-O tumors = assay: pPERK in 786-O tumor xenografts; assay type: in vivo, mouse; settings: for pPERK accumulation in 786-O tumors: PD arm, 7 days of dosing, single agent; for pPERK levels in 786-O tumors: single agent PO, several dose levels, 21 days (FIG. 26)
[5] = system: MFE280 endometrial cancer model; assay: MFE280 endometrial xenograft tumor growth; assay type: in vivo, mouse; settings: single agent: HC-5404 30 mg/kg PO BID or lenvatinib 10 mg/kg QD (FIG. 77)
Description: as §5, §3
as §4, with “ΔT<0.” for “ΔT<0. Animals with >50% regressions were partial responders.”

A498 RCC xenograft = A498 RCC xenograft tumor growth; assay type: in vivo, mouse; settings: single agent: HC-5404 30 mg/kg PO BID or sunitinib 20 mg/kg PO QD (FIG. 31)
Description: as §5, §3, §6

Caki-1 RCC xenograft = Caki-1 RCC xenograft tumor growth; assay type: in vivo, mouse; settings: HC-5404 or sunitinib monotherapy, compared with A498 (FIG. 32)
Description: as §5, §3, §6

[6] = 7 days after rerandomization (FIG. 92)

CNC(=O)c1ccccc1Sc1ccc2c(/C=C/c3ccccn3)n[nH]c2c1 [axitinib]
proportion of Meca32 expressing vascular endothelial cells ([1]; axitinib study (FIG. 38, 39)): decreased | immature CD31+SMA− vessels ([1]; axitinib study (FIG. 39)): decreased | mature CD31+SMA+ cells ([1]; axitinib study (FIG. 39)): did not affect | partial responses (PRs) among models ([2]; 15 RCC PDX models, 28 days, PR: regression >50% vs baseline (FIG. 35)): 1/15 | sensitivity of VHLwt models to axitinib ([2]; three of the VHLwt models): decreased sensitivity to axitinib | proportion of cells expressing CD31 [3, 6]: decreased by axitinib | proportion of smooth muscle actin (SMA) [3, 6]: decreased | number of Meca32+ and CD31+ cells ([3]; FIG. 41, 42): decreased | MCAM+ cells ([3]; FIG. 43, 44): decreased by axitinib | effect on tumor volume (786-O RCC xenograft): modest effects on tumor volume | body weight loss [4]: no treatment-associated body weight loss was observed | pPERK accumulation in 786-O tumors (pPERK in 786-O tumors): induced pPERK accumulation | pPERK levels in 786-O tumors (pPERK in 786-O tumors): dose-dependent increases in pPERK

COc1cc2nccc(Oc3ccc(NC(=O)C4(C(=O)Nc5ccc(F)cc5)CC4)cc3)c2cc1OC [cabozantinib]
immature vasculature (CD31+SMA− cells) ([1]; cabozantinib study (FIG. 54, 55)): near complete loss of immature vasculature | partial responses (786-O RCC xenograft; cabozantinib 30 mg/kg QD alone or with HC-5404 10 or 30 mg/kg BID (each group)): 2/8 | tumor response (786-O RCC xenograft; cabozantinib 30 mg/kg QD monotherapy (FIG. 52)): tumor stasis | effect on tumor volume (786-O RCC xenograft): modest effects on tumor volume | body weight loss [4]: no treatment-associated body weight loss was observed | mouse body weight ([4]; 786-O, HC-5404 3, 10, 30 mg/kg BID and/or cabozantinib 30 mg/kg QD (FIG. 53)): did not affect mouse body weight | pPERK accumulation in 786-O tumors (pPERK in 786-O tumors): induced pPERK accumulation | pPERK levels in 786-O tumors (pPERK in 786-O tumors): dose-dependent increases in pPERK

COc1cc2nccc(Oc3ccc(NC(=O)NC4CC4)c(Cl)c3)c2cc1C(N)=O [lenvatinib]
TGI % [5]: ~ 85% | effect on tumor volume (786-O RCC xenograft): modest effects on tumor volume | body weight loss [4]: no treatment-associated body weight loss was observed | pPERK accumulation in 786-O tumors (pPERK in 786-O tumors): induced pPERK accumulation | pPERK levels in 786-O tumors (pPERK in 786-O tumors): dose-dependent increases in pPERK

CCN(CC)CCNC(=O)c1c(C)[nH]c(/C=C2\C(=O)Nc3ccc(F)cc32)c1C [sunitinib, reference compound]
inhibition of 786-O growth (786-O RCC xenograft; sunitinib single agent 40 mg/kg QD (FIG. 28)): effective inhibitor of 786-O growth | pPERK accumulation in 786-O tumors (pPERK in 786-O tumors): induced pPERK accumulation | pPERK in 786-O xenografts (pPERK in 786-O tumors; sunitinib single agent): increased pPERK | time course of pPERK increase in 786-O xenografts (pPERK in 786-O tumors; sunitinib single agent): increased over time | TGI (A498 RCC xenograft): 80% | sensitivity of Caki-1 to monotherapy (Caki-1 RCC xenograft): far less sensitive

Source: patent US20260373132A1, “PERK INHIBITORHC-5404 IN COMBINATION WITH ANTI-PD-1 ANTIBODY AND/OR AN ANTIANGIOGENETIC AGENT FOR USE IN THE TREATMENT OF CANCER” (HIBERCELL, INC., priority 2022, published 2026)
